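These data come from cells grown in 96-well plates and exposed to compound for 48 hours at five concentrations. GI50 is the concentration that inhibits growth by half.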 The source made the active and inactive calls. Cut-off read from the data, not from the text of the source: active = GI50 up to about 1.1 µM and inactive = higher.
Legend:
Test in all cases: growth of human tumour cells (NCI), 48 h
786-0 = system: 786-0
A549 = system: A549
CCRF-CEM = system: CCRF-CEM
COLO 205 = system: COLO 205
EKVX = system: EKVX
HCC 2998 = system: HCC 2998
HOP-62 = system: HOP-62
IGROV-1 = system: IGROV-1
M14 = system: M14
Malme-3M = system: Malme-3M
NCI-H23 = system: NCI-H23
SF-295 = system: SF-295
SK-MEL-5 = system: SK-MEL-5
UO-31 = system: UO-31
CAKI-1 = system: CAKI-1
NCI-H522 = system: NCI-H522
OVCAR-5 = system: OVCAR-5

Measured: GI50

OC1=CN=C(c2ccccc2)Oc2ccccc21
inactive: 786-0 46.7 µM | A549 > 100 µM | CCRF-CEM > 100 µM | COLO 205 > 100 µM | EKVX > 100 µM | HCC 2998 > 100 µM | HOP-62 68.1 µM | IGROV-1 > 100 µM | M14 > 100 µM | Malme-3M > 100 µM | NCI-H23 > 100 µM | SF-295 32 µM | SK-MEL-5 > 100 µM | UO-31 > 100 µM

COC(=O)N/N=C(\C)C(CN1CCCCC1)C(C1=C(O)c2ccccc2OC1)c1ccccc1 (configuration not stated)
inactive: 786-0 > 100 µM | A549 > 100 µM | CAKI-1 > 100 µM | CCRF-CEM > 100 µM | COLO 205 > 100 µM | EKVX > 100 µM | HOP-62 > 100 µM | IGROV-1 > 100 µM | M14 > 100 µM | Malme-3M > 100 µM | NCI-H23 > 100 µM | NCI-H522 > 100 µM | OVCAR-5 > 100 µM | SF-295 > 100 µM | SK-MEL-5 > 100 µM | UO-31 72.4 µM

CCOC(=O)C=C1CCN(C(=O)c2ccccc2)CC1
inactive: 786-0 > 100 µM | A549 > 100 µM | CCRF-CEM > 100 µM | COLO 205 > 100 µM | EKVX > 100 µM | HCC 2998 > 100 µM | HOP-62 > 100 µM | IGROV-1 > 100 µM | M14 > 100 µM | Malme-3M > 100 µM | NCI-H23 > 100 µM | OVCAR-5 > 100 µM | SF-295 > 100 µM | SK-MEL-5 > 100 µM | UO-31 > 100 µM

Cc1ccc(NC(=O)CSc2nnc(-c3ccc(/N=C\c4ccc(Cl)cc4)cc3)o2)cc1
inactive: 786-0 > 100 µM | A549 > 100 µM | CCRF-CEM > 100 µM | COLO 205 > 100 µM | EKVX > 100 µM | HOP-62 > 100 µM | M14 > 100 µM | Malme-3M > 100 µM | NCI-H23 > 100 µM | NCI-H522 34.3 µM | SF-295 > 100 µM | SK-MEL-5 > 100 µM | UO-31 > 100 µM

C=C=C(CC)C(C(=O)OC)N(CC)CC (configuration not stated)
inactive: 786-0 > 100 µM | A549 > 100 µM | CAKI-1 > 100 µM | CCRF-CEM > 100 µM | COLO 205 > 100 µM | EKVX > 100 µM | HOP-62 > 100 µM | IGROV-1 > 100 µM | M14 > 100 µM | Malme-3M > 100 µM | NCI-H23 > 100 µM | NCI-H522 > 100 µM | SF-295 > 100 µM | SK-MEL-5 > 100 µM | UO-31 > 100 µM

O=C(Nc1ccn(CCI)c(=O)n1)c1ccccc1
inactive: 786-0 > 100 µM | A549 > 100 µM | CAKI-1 > 100 µM | CCRF-CEM > 100 µM | COLO 205 > 100 µM | EKVX > 100 µM | HOP-62 > 100 µM | IGROV-1 > 100 µM | M14 > 100 µM | Malme-3M > 100 µM | NCI-H522 > 100 µM | OVCAR-5 > 100 µM | SF-295 > 100 µM | SK-MEL-5 > 100 µM | UO-31 > 100 µM

O=C1OC(c2ccccc2)=N/C1=C\c1ccc2ccccc2c1
inactive: 786-0 > 100 µM | A549 > 100 µM | CAKI-1 > 100 µM | CCRF-CEM > 100 µM | COLO 205 > 100 µM | EKVX > 100 µM | IGROV-1 > 100 µM | M14 > 100 µM | Malme-3M > 100 µM | NCI-H23 > 100 µM | NCI-H522 > 100 µM | OVCAR-5 > 100 µM | SK-MEL-5 > 100 µM | UO-31 > 100 µM

From ChEMBL document CHEMBL1201862, “PubChem BioAssay data set” (2004)
